Counter-ions that a name gives are not always drawn. Like-named read-outs stand apart in the source and are kept apart here.
Target: T1, hNaV1.7 (Homo sapiens, UniProt Q15858)
T1 construct: expressed in transfected cells; host or cells: HEK293
Assay: QPatch NaV1.7 assay (whole-cell patch clamp, QPatch16x)
Format: cell-based
Settings: HEK293-hNaV1.7 cells
Outline: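 Automated whole-cell recordings in hNaV1.7-expressing HEK293 cells, holding at either −90 mV (mostly closed channels) or the half-inactivation voltage. Compounds applied cumulatively at four concentrations for 120 s each; peak current on 20 ms depolarisation to 0 mV fitted by Hill equation to yield pIC50.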

[1] = holding voltage V1/2 SSI (half of channels inactivated), read-out: QP Nav1.7 SSI vhalf pIC50 (converted)
[2] = holding voltage −90 mV (most channels closed), read-out: QP Nav1.7 −90 mV pIC50 (converted)

T1 sequence (Q15858 whole entry): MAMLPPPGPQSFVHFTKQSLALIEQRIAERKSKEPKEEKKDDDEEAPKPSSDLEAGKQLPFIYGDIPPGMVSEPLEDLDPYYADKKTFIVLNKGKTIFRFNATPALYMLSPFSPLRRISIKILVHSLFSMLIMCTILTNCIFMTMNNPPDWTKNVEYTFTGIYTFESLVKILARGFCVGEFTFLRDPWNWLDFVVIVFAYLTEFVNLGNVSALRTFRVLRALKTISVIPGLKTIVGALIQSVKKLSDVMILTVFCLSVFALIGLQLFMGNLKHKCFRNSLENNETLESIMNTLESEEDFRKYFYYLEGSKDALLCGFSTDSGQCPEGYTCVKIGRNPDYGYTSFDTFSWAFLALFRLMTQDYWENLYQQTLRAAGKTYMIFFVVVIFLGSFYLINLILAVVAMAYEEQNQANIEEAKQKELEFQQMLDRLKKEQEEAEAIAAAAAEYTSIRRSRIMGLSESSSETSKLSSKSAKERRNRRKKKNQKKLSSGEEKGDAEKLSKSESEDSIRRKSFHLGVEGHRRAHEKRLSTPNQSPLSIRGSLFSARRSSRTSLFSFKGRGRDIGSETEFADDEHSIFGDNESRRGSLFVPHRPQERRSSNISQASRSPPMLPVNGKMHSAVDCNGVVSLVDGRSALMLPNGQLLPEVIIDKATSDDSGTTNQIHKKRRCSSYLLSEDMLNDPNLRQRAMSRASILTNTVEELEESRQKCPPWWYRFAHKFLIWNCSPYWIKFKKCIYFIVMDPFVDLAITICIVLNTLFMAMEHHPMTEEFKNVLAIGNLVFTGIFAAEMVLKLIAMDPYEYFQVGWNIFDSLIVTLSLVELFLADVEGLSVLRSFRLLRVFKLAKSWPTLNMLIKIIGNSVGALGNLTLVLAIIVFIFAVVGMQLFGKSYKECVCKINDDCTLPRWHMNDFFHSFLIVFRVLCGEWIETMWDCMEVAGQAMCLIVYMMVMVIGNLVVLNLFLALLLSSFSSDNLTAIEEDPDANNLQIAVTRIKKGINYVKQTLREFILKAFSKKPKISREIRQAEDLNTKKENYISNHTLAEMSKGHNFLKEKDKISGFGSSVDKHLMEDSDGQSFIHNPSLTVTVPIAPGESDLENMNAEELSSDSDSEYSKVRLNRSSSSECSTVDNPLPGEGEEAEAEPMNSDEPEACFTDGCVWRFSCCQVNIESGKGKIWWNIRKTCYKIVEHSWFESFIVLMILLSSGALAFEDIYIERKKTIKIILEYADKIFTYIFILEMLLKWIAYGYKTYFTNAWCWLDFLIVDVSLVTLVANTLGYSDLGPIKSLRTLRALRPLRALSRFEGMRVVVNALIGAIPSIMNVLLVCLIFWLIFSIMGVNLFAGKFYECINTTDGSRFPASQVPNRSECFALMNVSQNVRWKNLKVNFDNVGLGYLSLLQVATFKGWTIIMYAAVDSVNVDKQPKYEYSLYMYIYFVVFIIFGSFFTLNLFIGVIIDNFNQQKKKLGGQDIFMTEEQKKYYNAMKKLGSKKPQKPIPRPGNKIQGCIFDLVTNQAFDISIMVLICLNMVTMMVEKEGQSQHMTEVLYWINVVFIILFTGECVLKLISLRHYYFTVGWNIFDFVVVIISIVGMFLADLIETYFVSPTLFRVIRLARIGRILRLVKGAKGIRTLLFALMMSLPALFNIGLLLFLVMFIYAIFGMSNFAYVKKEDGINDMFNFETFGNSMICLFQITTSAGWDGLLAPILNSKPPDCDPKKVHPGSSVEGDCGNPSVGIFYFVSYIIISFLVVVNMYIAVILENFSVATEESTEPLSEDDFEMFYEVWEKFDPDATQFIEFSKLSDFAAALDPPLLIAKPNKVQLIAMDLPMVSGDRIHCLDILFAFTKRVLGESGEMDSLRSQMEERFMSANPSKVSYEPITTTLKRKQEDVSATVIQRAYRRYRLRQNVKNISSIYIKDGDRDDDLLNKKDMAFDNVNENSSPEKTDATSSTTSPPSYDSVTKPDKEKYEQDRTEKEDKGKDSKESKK

Row | IC50 [1] [µM] | IC50 [2] [µM] | SMILES
1 | 0.126 | 5.01 | CCCOc1ccc(F)c(-c2cc(C)nc([C@@H]3CC[C@]4(CCN(C)C4=O)N3)c2)c1 [Example 201, (2S,5R)-2-[4-(2-Fluoro-5-propoxy-phenyl)-6-methyl-2-pyridyl]-7-methyl-1,7-diazaspiro[4.4]nonan-6-one hydrochloride]
2 | 3.16 | 31.6 | CCOc1cc(-c2cc(C)nc([C@H]3CC[C@@]4(CCN(C)C4=O)N3)c2)c(F)cc1C [Example 202, (2R,5S)-2-[4-(5-Ethoxy-2-fluoro-4-methyl-phenyl)-6-methyl-2-pyridyl]-7-methyl-1,7-diazaspiro[4.4]nonan-6-one hydrochloride]
3 | 251 | 2000 | Cc1cc(-c2cc(N3CCCC3=O)ccc2F)cc([C@H]2CC[C@@]3(CCN(C)C3=O)N2)n1 [Example 203, (2R,5S)-2-[4-[2-Fluoro-5-(2-oxopyrrolidin-1-yl)phenyl]-6-methyl-2-pyridyl]-7-methyl-1,7-diazaspiro[4.4]nonan-6-one hydrochloride]
4 | 5.01 | 31.6 | CCc1ccc(F)c(-c2cc(C)nc([C@H]3CC[C@@]4(CCN(C)C4=O)N3)c2)c1 [Example 204, (2R,5S)-2-[4-(5-Ethyl-2-fluoro-phenyl)-6-methyl-2-pyridyl]-7-methyl-1,7-diazaspiro[4.4]nonan-6-one hydrochloride]
5 | 6.31 | 63.1 | CCc1cccc(-c2cc(C)nc([C@H]3CC[C@@]4(CCN(C)C4=O)N3)c2)c1 [Example 205, (2R,5S)-2-[4-(3-Ethylphenyl)-6-methyl-2-pyridyl]-7-methyl-1,7-diazaspiro[4.4]nonan-6-one hydrochloride]
6 | 10 | 63.1 | CCc1cccc(-c2cc(C)nc([C@H]3CC[C@@]4(CCN(C)C4=O)N3)c2)c1F [Example 206, (2R,5S)-2-[4-(3-Ethyl-2-fluoro-phenyl)-6-methyl-2-pyridyl]-7-methyl-1,7-diazaspiro[4.4]nonan-6-one hydrochloride]
7 | 6.31 | 79.4 | CCOc1cccc(-c2cc(C)nc([C@H]3CC[C@@]4(CCN(C)C4=O)N3)c2)c1 [Example 207, (2R,5S)-2-[4-(3-Ethoxyphenyl)-6-methyl-2-pyridyl]-7-methyl-1,7-diazaspiro[4.4]nonan-6-one hydrochloride]
8 | 100 | 158 | Cc1cc(-c2cc3c(cc2F)CCO3)cc([C@@H]2CC[C@]3(CCN(C)C3=O)N2)n1 [Example 208, (2S,5R)-2-[4-(5-Fluoro-2,3-dihydrobenzofuran-6-yl)-6-methyl-2-pyridyl]-7-methyl-1,7-diazaspiro[4.4]nonan-6-one hydrochloride]
9 | 3.16 | 25.1 | Cc1cc(-c2ccc(OC(C)C)nc2)cc([C@@H]2CC[C@]3(CCN(C)C3=O)N2)n1 [Example 209, (2S,5R)-2-[4-(6-Isopropoxy-3-pyridyl)-6-methyl-2-pyridyl]-7-methyl-1,7-diazaspiro[4.4]nonan-6-one hydrochloride]
10 | 398 | – | CCS(=O)(=O)c1ccc(-c2cc(C)nc([C@@H]3CC[C@]4(CCN(C)C4=O)N3)c2)cc1 [Example 210, (2S,5R)-2-[4-(4-Ethylsulfonylphenyl)-6-methyl-2-pyridyl]-7-methyl-1,7-diazaspiro[4.4]nonan-6-one hydrochloride]
11 | 25.1 | 251 | Cc1cc(-c2cc(F)ccc2F)cc([C@H]2CC[C@@]3(CCN(C)C3=O)N2)n1 [Example 211, (2R,5S)-2-[4-(2,5-Difluorophenyl)-6-methyl-2-pyridyl]-7-methyl-1,7-diazaspiro[4.4]nonan-6-one hydrochloride]
12 | 3.98 | 31.6 | CCOc1ccc(F)c(-c2ccnc([C@@H]3CC[C@@]4(CCN(C)C4=O)N3)c2C)c1 [Example 214, (2S,5S)-2-[4-(5-Ethoxy-2-fluoro-phenyl)-3-methyl-2-pyridyl]-7-methyl-1,7-diazaspiro[4.4]nonan-6-one hydrochloride]
13 | 12.6 | 126 | CCOc1ccc(F)c(-c2ccnc([C@H]3CC[C@@]4(CCN(C)C4=O)N3)c2C)c1 [Example 215, (2R,5S)-2-[4-(5-Ethoxy-2-fluoro-phenyl)-3-methyl-2-pyridyl]-7-methyl-1,7-diazaspiro[4.4]nonan-6-one hydrochloride]
14 | 31.6 | 316 | CCOc1ccc(F)c(-c2cc([C@@H]3CC[C@]4(CCN(C)C4=O)N3)ncc2F)c1 [Example 221, (2S,5R)-2-[4-(5-Ethoxy-2-fluoro-phenyl)-5-fluoro-2-pyridyl]-7-methyl-1,7-diazaspiro[4.4]nonan-6-one hydrochloride]
15 | 25.1 | 398 | CCOc1ccc(F)c(-c2cc([C@H]3CC[C@]4(CCN(C)C4=O)N3)ncc2F)c1 [Example 222, (2R,5R)-2-[4-(5-Ethoxy-2-fluoro-phenyl)-5-fluoro-2-pyridyl]-7-methyl-1,7-diazaspiro[4.4]nonan-6-one hydrochloride]
16 | 25.1 | 158 | CCOc1ccc(F)c(-c2cc([C@H]3CC[C@@]4(CCN(C)C4=O)N3)ncc2F)c1 [Example 223, (2R,5S)-2-[4-(5-Ethoxy-2-fluoro-phenyl)-5-fluoro-2-pyridyl]-7-methyl-1,7-diazaspiro[4.4]nonan-6-one hydrochloride]
17 | 15.8 | 100 | CCOc1ccc(F)c(-c2cc([C@@H]3CC[C@@]4(CCN(C)C4=O)N3)ncc2F)c1 [Example 224, (2S,5S)-2-[4-(5-Ethoxy-2-fluoro-phenyl)-5-fluoro-2-pyridyl]-7-methyl-1,7-diazaspiro[4.4]nonan-6-one hydrochloride]

Continued, compound first:

Row | SMILES | IC50 [1] [µM] | IC50 [2] [µM]
18 | CCOc1ccc(F)c(-c2ccnc([C@H]3CC[C@]4(CCN(C)C4=O)N3)c2C)c1 [Example 212, (2R,5R)-2-[4-(5-Ethoxy-2-fluoro-phenyl)-3-methyl-2-pyridyl]-7-methyl-1,7-diazaspiro[4.4]nonan-6-one hydrochloride] | 5.01 | 63.1
19 | CCOc1ccc(F)c(-c2ccnc([C@@H]3CC[C@]4(CCN(C)C4=O)N3)c2C)c1 [Example 213, (2S,5R)-2-[4-(5-Ethoxy-2-fluoro-phenyl)-3-methyl-2-pyridyl]-7-methyl-1,7-diazaspiro[4.4]nonan-6-one hydrochloride] | 6.31 | 63.1
20 | CCOc1ccc(F)c(-c2ccnc([C@@H]3CC[C@@]4(CC(C)(C)NC4=O)N3)c2)c1 [Example 216, (2S,5S)-2-[4-(5-Ethoxy-2-fluoro-phenyl)-2-pyridyl]-8,8-dimethyl-1,7-diazaspiro[4.4]nonan-6-one hydrochloride] | 5.01 | 31.6
21 | CCOc1ccc(F)c(-c2ccnc([C@H]3CC[C@@]4(CC(C)(C)NC4=O)N3)c2)c1 [Example 217, (2R,5S)-2-[4-(5-Ethoxy-2-fluoro-phenyl)-2-pyridyl]-8,8-dimethyl-1,7-diazaspiro[4.4]nonan-6-one hydrochloride] | 3.98 | 25.1
22 | CCOc1ccc(F)c(-c2ccnc([C@H]3CC[C@]4(CC(C)(C)NC4=O)N3)c2)c1 [Example 218, (2R,5R)-2-[4-(5-Ethoxy-2-fluoro-phenyl)-2-pyridyl]-8,8-dimethyl-1,7-diazaspiro[4.4]nonan-6-one hydrochloride] | 0.501 | 6.31
23 | CCOc1ccc(F)c(-c2ccnc([C@@H]3CC[C@]4(CC(C)(C)NC4=O)N3)c2)c1 [Example 219, (2S,5R)-2-[4-(5-Ethoxy-2-fluoro-phenyl)-2-pyridyl]-8,8-dimethyl-1,7-diazaspiro[4.4]nonan-6-one hydrochloride] | 7.94 | 50.1
24 | CC1(C)C[C@]2(CC[C@H](c3cc(-c4cc(O)ccc4F)ccn3)N2)C(=O)N1 [Example 220, (2R,5R)-2-[4-(2-Fluoro-5-hydroxy-phenyl)-2-pyridyl]-8,8-dimethyl-1,7-diazaspiro[4.4]nonan-6-one] | 50.1 | 200
25 | CN1CC[C@@]2(CC[C@H](c3cc(-c4ccc(C(F)(F)F)cc4)ccn3)N2C)C1=O [Example 225, (2R,5S)-1,7-Dimethyl-2-[4-[4-(trifluoromethyl)phenyl]-2-pyridyl]-1,7-diazaspiro[4.4]nonan-6-one hydrochloride] | 25.1 | 251
26 | Cc1cc(-c2ccc(C(F)(F)F)cc2)cc([C@@H]2CC[C@@]3(CCNC3=O)N2C)n1 [Example 226, (2S,5S)-1-Methyl-2-[6-methyl-4-[4-(trifluoromethyl)phenyl]-2-pyridyl]-1,7-diazaspiro[4.4]nonan-6-one hydrochloride] | 12.6 | 1580
27 | Cc1cc(-c2ccc(C(F)(F)F)cc2)cc([C@H]2CC[C@]3(CCNC3=O)N2C)n1 [Example 227, (2R,5R)-1-Methyl-2-[6-methyl-4-[4-(trifluoromethyl)phenyl]-2-pyridyl]-1,7-diazaspiro[4.4]nonan-6-one hydrochloride] | 12.6 | 158
28 | Cc1cc(-c2ccc(C(F)(F)F)cc2)cc([C@@H]2CC[C@]3(CCNC3=O)N2C)n1 [Example 228, (2S,5R)-1-Methyl-2-[6-methyl-4-[4-(trifluoromethyl)phenyl]-2-pyridyl]-1,7-diazaspiro[4.4]nonan-6-one hydrochloride] | 3.16 | 20
29 | Cc1cc(-c2ccc(C(F)(F)F)cc2)cc([C@H]2CC[C@@]3(CCNC3=O)N2C)n1 [Example 229, (2R,5S)-1-Methyl-2-[6-methyl-4-[4-(trifluoromethyl)phenyl]-2-pyridyl]-1,7-diazaspiro[4.4]nonan-6-one hydrochloride] | 3.16 | 63.1
30 | CN1[C@H](c2cc(-c3ccc(C(F)(F)F)cc3)ccn2)CC[C@]12CCCNC2=O [Example 230, hydrochloride] | 1.26 | 25.1
